Reference: patent publication US8609608B2, “Antimicrobial peptides” (C3 Jian, Inc., priority 2007, dated 2013)
Where no end group is shown, it is not given here.

Tests used:
[1] = tested on: E. faecalis
[2] = tested on: clinical isolates of S. mutans; assay type: cell-based, Streptococcus mutans
Description: (§1) S. mutans clinical isolates UA140 (32), UA159 (1), T8 (33), ATCC 25175, GS5 (Kuramitsu and Ingersoll (1977) Infect Immun., 17: 330-337), and all gram-positive strains listed below (see Table 9) were grown under anaerobic conditions in brain heart infusion or Todd-Hewitt (TH) broth (Difco) overnight at 37° C. prior to use (Eckert et al. (2006) Antimicrob. Agents Chemother. 50: 3651-3657). Veillonella atypica PK1910 was grown in Veillonella medium (Egland et al. (2004) Proc. Natl. Acad. Sci., USA, 101: 16917-16922). All strains were grown in an anaerobic atmosphere of 80% N2, 10% CO2, and 10% H2.
(§2) Antibacterial growth inhibition assays were performed using sterile 96-well plates in a final volume of 100 μl, TH or Veillonella medium as described previously (Qi et al. (2005) FEMS Microbial Lett. 251: 321-326). Briefly, bacterial cells were grown overnight to an optical density at 600 nm of 0.75 to 0.8 (corresponding to 1×10^8 CFU/ml) and then diluted to 1×10^5 CFU/ml in broth and aliquoted onto plates. An appropriate volume of peptide stock solution (5 to 20 mg/ml, in water or methanol, depending on solubility) was then added to the first column of the plate to give 500 μg/ml or 512 μg/ml, followed by serial 1:2 dilutions across the plate to give wells containing peptides ranging from 500 to 1.95 μg/ml or 512 to 2 μg/ml. Methanol alone was also added to control for the effects of the solvent. The plates were then incubated at 37° C. under anaerobic conditions for 16 to 20 h without shaking, and the MIC was determined as the concentration of peptide present in the last clear well after visual inspection. Up to 5% (vol/vol) methanol was found not to be antimicrobial (data not shown). MICs were determined in triplicate for all bacteria.

[3] = tested on: S. aureus
[4] = tested on: L. casei
[5] = tested on: P. aeruginosa; assay: MIC against P. aeruginosa; assay type: cell-based, Pseudomonas aeruginosa
[6] = tested on: S. mitis ATCC 903; assay type: cell-based, Streptococcus mitis
Description: as §1, §2

[7] = tested on: L. casei ATCC 4646; assay type: cell-based, Lactobacillus casei
Description: as §1, §2

[8] = tested on: V. atypica PK1910; assay type: cell-based, Veillonella atypica
Description: as §1, §2

[9] = tested on: S. sanguinis NY101; assay type: cell-based, Streptococcus sanguinis
Description: as §1, §2

[10] = tested on: S. gordonii Challis DL1; assay type: cell-based, Streptococcus gordonii
Description: as §1, §2

Substance	MIC E. faecalis [1]	MIC S. mutans ([2]; clinical isolates of)	MIC S. aureus [3]	MIC L. casei [4]	MIC P. aeruginosa [5]	MIC S. mitis ATCC 903 [6]	MIC L. casei ATCC 4646 [7]	MIC V. atypica PK1910 [8]	MIC ([2]; clinical isolates of)	MIC S. sanguinis NY101 [9]	MIC S. gordonii Challis DL1 [10]	MIC (fusion library peptides) ([2]; clinical isolates of)	activity against S. mutans by MIC, in words [2]
FIRKFLFKHLF [Peptide S3L8-26, FIRKFLFKHLF]	24 µg/mL	16 µg/mL	62.5 µg/mL	16 µg/mL	>125 µg/mL	–	–	–	–	–	–	–	–
FKFKHKLIF [Peptide S3L8-36, FKFKHKLIF]	>125 µg/mL	>125 µg/mL	>125 µg/mL	>62.5 µg/mL	>125 µg/mL	–	–	–	–	–	–	–	–
FKFLFKF [Peptide S3L8-42, FKFLFKF]	>125 µg/mL	>125 µg/mL	>125 µg/mL	>62.5 µg/mL	>125 µg/mL	–	–	–	–	–	–	–	–
FKFLFKFLF [Peptide S3L8-38, FKFLFKFLF]	>125 µg/mL	>125 µg/mL	>125 µg/mL	32 µg/mL	>125 µg/mL	–	–	–	–	–	–	–	–
FKFLFKHKF [Peptide S3L8-40, FKFLFKHKF]	62.5 µg/mL	30 µg/mL	>125 µg/mL	62.5 µg/mL	>125 µg/mL	–	–	–	–	–	–	–	–
FKHKFKHKFIF [Peptide S3L8-30, FKHKFKHKFIF]	>125 µg/mL	>125 µg/mL	>125 µg/mL	>62.5 µg/mL	>125 µg/mL	–	–	–	–	–	–	–	–
FKKFWKWFRRF-NH2 [Peptide B-33, FKKFWKWFRRF*]	–	–	–	–	–	32 µg/mL	32 µg/mL	16 µg/mL	8 to 24 µg/mL	32 µg/mL	32 µg/mL	–	–
FKKFWKWFRRFGGGRWRWRWF-NH2 [FBRW-14, FKKFWKWFRRF-GGG-RWRWRWF*]	–	–	–	–	–	64 µg/mL	8 µg/mL	8 µg/mL	–	16 µg/mL	32 µg/mL	4 to 16 µg/mL	–
FLFKHLFLHRIFF [Peptide S3L8-16, FLFKHLFLHRIFF]	>125 µg/mL	>125 µg/mL	>125 µg/mL	>62.5 µg/mL	>125 µg/mL	–	–	–	–	–	–	–	–
FLFRHRFRHRLVF [Peptide S3L8-28, FLFRHRFRHRLVF]	62.5 µg/mL	60 µg/mL	>125 µg/mL	>62.5 µg/mL	>125 µg/mL	–	–	–	–	–	–	–	–
FLHKHLFKHKLF [Peptide S3L8-18, FLHKHLFKHKLF]	>125 µg/mL	>125 µg/mL	>125 µg/mL	>62.5 µg/mL	>125 µg/mL	–	–	–	–	–	–	–	–
FRHRFRHRF [Peptide S3L8-34, FRHRFRHRF]	>125 µg/mL	>125 µg/mL	>125 µg/mL	>62.5 µg/mL	>125 µg/mL	–	–	–	–	–	–	–	–
FVFRHKWVWKHRFLF [Peptide S3L8-1, FVFRHKWVWKHRFLF]	32 µg/mL	16 µg/mL	>125 µg/mL	62.5 µg/mL	>125 µg/mL	–	–	–	–	–	–	–	–
IKQLLHFFQRF-NH2 [Peptide B-38, IKQLLHFFQRF*]	–	–	–	–	–	64 µg/mL	32 µg/mL	64 µg/mL	24 µg/mL	64 µg/mL	32 µg/mL	–	active but to a lesser degree than B-33 or B-34
LILKFLFKFVF [Peptide S3L8-32, LILKFLFKFVF]	16 µg/mL	31 µg/mL	16 µg/mL	16 µg/mL	>125 µg/mL	–	–	–	–	–	–	–	–
LKAKIKFKVKLKIKF [Peptide S3L8-11, LKAKIKFKVKLKIKF]	39 µg/mL	8 µg/mL	125 µg/mL	3 µg/mL	32 to 62.5 µg/mL	–	–	–	–	–	–	–	–

Substance	MIC E. faecalis [1]	MIC S. mutans ([2]; clinical isolates of)	MIC S. aureus [3]	MIC L. casei [4]	MIC P. aeruginosa [5]	MIC S. mitis ATCC 903 [6]	MIC L. casei ATCC 4646 [7]	MIC V. atypica PK1910 [8]	MIC ([2]; clinical isolates of)	MIC S. sanguinis NY101 [9]	MIC S. gordonii Challis DL1 [10]	MIC (fusion library peptides) ([2]; clinical isolates of)	activity against S. mutans by MIC, in words [2]
LKHKLKHKF [Peptide S3L8-35, LKHKLKHKF]	>125 µg/mL	>125 µg/mL	>125 µg/mL	>62.5 µg/mL	>125 µg/mL	–	–	–	–	–	–	–	–
LRHRLRHRLIF [Peptide S3L8-31, LRHRLRHRLIF]	125 µg/mL	>125 µg/mL	>125 µg/mL	>62.5 µg/mL	>125 µg/mL	–	–	–	–	–	–	–	–
LRIHARFKVHIRLKF [Peptide S3L8-5, LRIHARFKVHIRLKF]	12 µg/mL	60 µg/mL	>125 µg/mL	8 µg/mL	>125 µg/mL	–	–	–	–	–	–	–	–
LRLFLRF [Peptide S3L8-43, LRLFLRF]	>125 µg/mL	>125 µg/mL	>125 µg/mL	>62.5 µg/mL	>125 µg/mL	–	–	–	–	–	–	–	–
LRLFLRHRF [Peptide S3L8-41, LRLFLRHRF]	62.5 µg/mL	16 µg/mL	>125 µg/mL	>62.5 µg/mL	>125 µg/mL	–	–	–	–	–	–	–	–
LRLFLRWLF [Peptide S3L8-39, LRLFLRWLF]	32 µg/mL	16 µg/mL	16 µg/mL	16 µg/mL	>125 µg/mL	–	–	–	–	–	–	–	–
LRLRHRVLF [Peptide S3L8-37, LRLRHRVLF]	>125 µg/mL	>125 µg/mL	>125 µg/mL	>62.5 µg/mL	>125 µg/mL	–	–	–	–	–	–	–	–
LVHKLILRHLLF [Peptide S3L8-22, LVHKLILRHLLF]	>125 µg/mL	>125 µg/mL	>125 µg/mL	>62.5 µg/mL	>125 µg/mL	–	–	–	–	–	–	–	–
VFKRVLIHKLIF [Peptide S3L8-23, VFKRVLIHKLIF]	32 µg/mL	>125 µg/mL	>125 µg/mL	62.5 µg/mL	>125 µg/mL	–	–	–	–	–	–	–	–
VFRHRFIHRHVF [Peptide S3L8-19, VFRHRFIHRHVF]	>125 µg/mL	>125 µg/mL	>125 µg/mL	>62.5 µg/mL	>125 µg/mL	–	–	–	–	–	–	–	–
VIRHVWVRKLF [Peptide S3L8-27, VIRHVWVRKLF]	>125 µg/mL	60 µg/mL	>125 µg/mL	>62.5 µg/mL	>125 µg/mL	–	–	–	–	–	–	–	–
VLIRILVRVIF [Peptide S3L8-33, VLIRILVRVIF]	16 µg/mL	>125 µg/mL	125 µg/mL	16 µg/mL	>125 µg/mL	–	–	–	–	–	–	–	–
VLKHVIAHKRLF [Peptide S3L8-25, VLKHVIAHKRLF]	>125 µg/mL	>125 µg/mL	>125 µg/mL	>62.5 µg/mL	>125 µg/mL	–	–	–	–	–	–	–	–
VLRHLFRHRIVF [Peptide S3L8-21, VLRHLFRHRIVF]	93.5 µg/mL	60 µg/mL	>125 µg/mL	>62.5 µg/mL	>125 µg/mL	–	–	–	–	–	–	–	–
WIWKHKFLHRHFLF [Peptide S3L8-12, WIWKHKFLHRHFLF]	125 µg/mL	125 µg/mL	>125 µg/mL	>62.5 µg/mL	>125 µg/mL	–	–	–	–	–	–	–	–
WRWRARWRWRLRWRF [Peptide S3L8-3, WRWRARWRWRLRWRF]	8 µg/mL	4 µg/mL	16 µg/mL	16 µg/mL	>125 µg/mL	–	–	–	–	–	–	–	–
